Here are results for one compound from patent US20240261274A1, “TREATMENT OF MYC-DRIVEN CANCERS WITH GSPT1 DEGRADERS” (MONTE ROSA THERAPEUTICS, INC., priority 2021, published 2024).

The term Dmax denotes the greatest extent of degradation seen. Lower therefore signals a partial loss of target. The DC50 is the concentration at which degradation of the target reaches its halfway point.

Where two headings read alike, the source gives them in different places.

One test relates to N-Myc. Kind of test: N-Myc levels in NCI-H1155 tumors (Compound 345). In kind it is in vivo, mice. Conditions: day 5, 1 mg/kg and 10 mg/kg, strongest effect at 10 mg/kg. How it is done: Additionally, plasma concentrations of Compound 345 and levels of GSPT1 and […] (relative to vehicle-only control) were measured in a time-course experiment on day 5 for the animals receiving 1 mg/kg and 10 mg/kg.
GSPT1 and N-Myc western blotting analyses from NCI-H1155 tumors: The NCI-H1155 model was run as described previously and tumors were harvested following 5 consecutive daily PO doses of Compound 345 at 1.0 and 10 mg/kg. Tumors were lysed in 1× lysis buffer (CST, Cat. No. 9803, Lot No. 0000122383) supplemented with protease (Sigma, Cat. No. P8340) and phosphatase ((Sigma, Cat. No. P5726 and P0044) cocktail inhibitors using TissueLyser II (QIAGEN #85300). Samples were spined at 15,000 rpm in an Eppendorf microfuge for 15 min at 4° C. The protein supernatant was collected in a new 1.5 ml tube and the protein concentrations were determined by the Pierce BCA kit (Thermo, Cat. No. 23225). The tumor lysate samples were mixed with 5×SDS-PAGE loading buffer boiled for 5 min and brought to ice for 5 min. 30 μg of protein was loaded onto a NUPAGE 4-12% BT gel (Invitrogen, Cat. No. NPO336BOX) for separation. […] Membranes were imaged on the Odyssey imager (Li-COR) using fluorescence or cheminulinescence detection. […] Data are expressed as mean±SEM derived from at least three different mice and collected at 0, 2, 6, 12, 24, 48, 72 and 96 hr as indicated.

The target in a further test is GSPT1 (Homo sapiens, UniProt P15170+Q96SW2). The test can be described thus: GSPT1 degradation by immunoblotting in cancer cell lines (Compound 345). In kind it is cell-based. The conditions noted are these: for GSPT1 degradation (immunoblots): 0.03, 0.3, 3 μM; for DC50: read-out: GSPT1 DC50. More on the design: endogenous in cells; host or cells: MM1 S (ATCC CRL-2974). Here is the method: Two high N-Myc expressing NSCLC cell lines (NCI-H155 and ABC-1) and two low N-Myc expressing NSCLC cell lines (NCI-H2023 and NCI-H441) were treated with Compound 345 in culture. Cells were treated with increasing concentrations of the compound (0.0; 0.00064; 0.0032; 0.016; 0.08; 0.4; 2.0; 10; and 30 nM), lysates were prepared, SDS-PAGE and immunoblotting was performed, and transfer membranes were probed for GSPT1 and GAPDH as a loading control. Expression levels of GSPT1 detected in the immunoblots of this experiment are plotted against concentration of Compound 345 in FIG. 10B. DC50 values (the concentration of the compound at which the target protein is degraded by 50%) were estimated for each cell line. NCI-H155, DC50=14 nM; ABC-1, DC50=76 nM; NCI-H2023, DC50=18 nM; NCI-H441, DC50=8.7 nM. Estimated Dmax for all cell lines was 95%-99%.
GSPT1, sequence (P15170 whole entry): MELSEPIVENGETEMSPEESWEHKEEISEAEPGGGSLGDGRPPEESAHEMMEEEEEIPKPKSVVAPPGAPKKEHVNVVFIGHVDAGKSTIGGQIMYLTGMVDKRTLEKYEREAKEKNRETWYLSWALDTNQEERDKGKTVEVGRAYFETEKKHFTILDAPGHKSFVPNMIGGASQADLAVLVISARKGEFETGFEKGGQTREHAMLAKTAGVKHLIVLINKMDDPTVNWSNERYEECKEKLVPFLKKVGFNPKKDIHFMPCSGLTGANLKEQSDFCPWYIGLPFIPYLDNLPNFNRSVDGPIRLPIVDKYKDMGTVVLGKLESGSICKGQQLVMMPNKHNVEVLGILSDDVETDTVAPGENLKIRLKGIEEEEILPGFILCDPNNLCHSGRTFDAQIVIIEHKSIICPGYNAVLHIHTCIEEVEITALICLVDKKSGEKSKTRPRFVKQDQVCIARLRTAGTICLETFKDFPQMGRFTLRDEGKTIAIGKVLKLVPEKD
GSPT1, sequence (Q96SW2 whole entry): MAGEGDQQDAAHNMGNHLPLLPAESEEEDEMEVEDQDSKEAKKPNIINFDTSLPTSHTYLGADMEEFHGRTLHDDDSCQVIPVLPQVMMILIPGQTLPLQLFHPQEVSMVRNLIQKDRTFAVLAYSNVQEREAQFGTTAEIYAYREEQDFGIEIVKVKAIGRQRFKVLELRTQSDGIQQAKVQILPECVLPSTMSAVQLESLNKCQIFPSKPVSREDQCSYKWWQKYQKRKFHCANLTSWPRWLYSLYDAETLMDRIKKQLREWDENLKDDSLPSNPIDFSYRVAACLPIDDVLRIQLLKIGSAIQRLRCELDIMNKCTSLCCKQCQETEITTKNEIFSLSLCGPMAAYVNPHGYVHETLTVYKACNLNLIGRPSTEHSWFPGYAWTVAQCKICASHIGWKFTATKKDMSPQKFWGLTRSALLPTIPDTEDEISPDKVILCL
GSPT1, sequence (Q16531 whole entry partner): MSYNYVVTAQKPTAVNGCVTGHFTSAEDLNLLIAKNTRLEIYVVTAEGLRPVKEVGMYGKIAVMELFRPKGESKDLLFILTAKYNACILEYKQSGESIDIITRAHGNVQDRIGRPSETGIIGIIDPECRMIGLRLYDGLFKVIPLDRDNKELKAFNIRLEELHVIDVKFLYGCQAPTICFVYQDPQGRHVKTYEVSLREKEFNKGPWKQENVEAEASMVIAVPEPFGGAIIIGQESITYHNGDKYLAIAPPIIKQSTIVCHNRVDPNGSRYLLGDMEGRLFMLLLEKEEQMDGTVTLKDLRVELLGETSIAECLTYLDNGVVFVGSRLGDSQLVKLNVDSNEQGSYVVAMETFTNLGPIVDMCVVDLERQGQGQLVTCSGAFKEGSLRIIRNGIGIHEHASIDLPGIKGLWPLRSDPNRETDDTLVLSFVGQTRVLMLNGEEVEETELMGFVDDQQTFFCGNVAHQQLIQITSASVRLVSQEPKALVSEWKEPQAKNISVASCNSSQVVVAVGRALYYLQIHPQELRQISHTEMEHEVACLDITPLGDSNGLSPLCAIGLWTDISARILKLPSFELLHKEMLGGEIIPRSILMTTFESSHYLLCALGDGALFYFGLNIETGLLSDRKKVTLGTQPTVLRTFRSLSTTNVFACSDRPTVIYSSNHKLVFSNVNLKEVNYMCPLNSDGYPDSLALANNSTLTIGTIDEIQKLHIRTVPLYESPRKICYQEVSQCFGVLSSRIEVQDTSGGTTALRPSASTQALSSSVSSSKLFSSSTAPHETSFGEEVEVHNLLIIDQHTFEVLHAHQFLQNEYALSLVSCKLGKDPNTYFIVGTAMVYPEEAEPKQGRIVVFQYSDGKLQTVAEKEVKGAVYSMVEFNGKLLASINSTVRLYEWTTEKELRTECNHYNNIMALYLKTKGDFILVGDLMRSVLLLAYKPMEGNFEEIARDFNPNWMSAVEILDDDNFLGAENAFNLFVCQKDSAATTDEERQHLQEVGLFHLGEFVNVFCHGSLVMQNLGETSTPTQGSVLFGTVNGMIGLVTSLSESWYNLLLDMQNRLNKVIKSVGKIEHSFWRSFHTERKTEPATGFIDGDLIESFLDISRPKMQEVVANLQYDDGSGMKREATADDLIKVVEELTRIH
GSPT1 and N-Myc western blotting analyses from cell line lysates: NCI-H1155, NCI-H2023, NCI-H441, ABC-1, NCI-H1836, NCI-H1876, MM.1S, DOHH2 and WSU-DLCLC2 cells were typically seeded in a 6 or 12 well plate (0.3 to 1.0×10^6 cells/mL) and incubated overnight. Compound 345 was dissolved in DMSO to obtain a 10 mM stock solution, and aliquots were stored at −20° C. The next day, cells were treated with various concentrations of Compound 345 or DMSO (Sigma, D2650) using a HP D300 dispenser (Tecan). Controls were pretreated for 30 minutes with Bortezomib (0.2 μM). Cells were washed with ice cold PBS at the indicated timepoints post addition of Compound 345 and lysed with 50 to 100 μL lysis buffer containing RIPA buffer (Invitrogen, R0278) and a mix of protease inhibitor cocktail (Sigma, P8340, 5726 and 0044). Protein concentration was assessed using the BCA assay (Pierce™ Rapid Gold BCA Protein Assay Kit, A53227) and 10 μg of protein was typically loaded onto a TGX Stain free 4-20% Criterion gel (Biorad, 5678095) for separation. Gel was transferred onto a 0.2 μm nitrocellulose membrane using the TransBlot transfer system (Biorad). Membranes were blocked in Every Blot Blocking Buffer (Biorad, 12010020) and incubated overnight at 4° C. with either of the following primary antibody: anti-GSPT1 diluted 1/5000th (Sigma, HPA052488), anti-N-Myc clone D1V2A diluted 1/1000th (Cell Signaling Technology, 84406), anti-α-Tubulin clone DM1A Alexa Fluor® 488 Conjugated (Cell Signaling Technology, Cat. No. CST8058) or anti-GAPDH Alexa647-coupled diluted 1/2500th (Invitrogen, MA5-15738-A647). The next day, a secondary HRP-conjugated goat anti-rabbit secondary antibody (Invitrogen, A16110) was used to allow detection of unlabelled primary antibodies. Membranes were imaged on a ChemiDoc imager (Biorad) using either fluorescence or chemiluminescence detection. Images were quantified using the Image Lab Software Version 6.1 (Biorad). Images were adjusted for alignment and contrast. Columns were manually defined to enable the band detection by the software. Band intensities, or densitometries, were exported to Excel (Microsoft® Excel® for Microsoft 365 MSO Version 2110) for further analysis. Briefly, band intensity for the protein of interest was normalized to the DMSO control, before being normalized to the GAPDH band intensity for the same column. Normalised data was transferred to GraphPad Prism 8.1.2 (GraphPad) and fitted using a four parameters models ([Inhibitor] vs. response—Variable slope) defined by the following equation: Y=Dmax+(Top−Dmax)/(1+(DC50/X)^HillSlope). Key degradation parameters reported included DC50 (concentration at which the GSPT1 total protein levels are reduced by 50%) and Dmax (maximum fractional amount of protein degraded).

[1] abbreviates: MM1 S multiple myeloma cells, 24 hours.

For `O=C1CCC(N2Cc3ccc(COC(=O)Nc4cc(OC(F)(F)F)ccc4F)cc3C2=O)C(=O)N1` (stereo not drawn) [Compound 345, (2-(2,6-dioxopiperidin-3-yl)-3-oxoisoindolin-5-yl)methyl(2-fluoro-5-(trifluoromethoxy)phenyl)carbamate], the “N-Myc level relative to vehicle-only control” value with N-Myc is listed as “substantially reduced”. For the same compound, the Dmax on GSPT1 (setting [1]) is 100%; at GSPT1 (WSUDLCL2, WSU-DLCL2 triple hit lymphoma cells, 24 hours), 100%; on GSPT1 (all cell lines (NCI-H155, ABC-1, NCI-H2023, NCI-H441)), 95 to 99%. Also, the “GSPT1 degradation (immunoblots)” value on GSPT1 (NCI-H155 and NCI-H2023, 0, 2, 6 hours) is “efficient degradation of GSPT1 in a time and dose dependent manner”; at GSPT1 (SCLC cell lines NCI-H1836 and NCI-H1876, up to 24 hours) it was “efficient degradation of GSPT1 in SCLC cell lines in a time and dose dependent manner”. Further, the DC50 at GSPT1 (ABC-1 (high N-Myc NSCLC)) stood at 76 nM; at GSPT1 (setting [1]), 6 nM; on GSPT1 (NCI-H155 (high N-Myc NSCLC)) it was 14 nM; at GSPT1 (NCI-H441 (low N-Myc NSCLC)), 8.7 nM; at GSPT1 (NCI-H2023 (low N-Myc NSCLC)), 18 nM; at GSPT1 (WSU-DLCL2 triple hit lymphoma cells, 24 hours) it was 24 nM.
